Measured values from US8076338B2, “Kinase modulators and methods of use” (Exelixis, Inc., priority 2004, dated 2011).
Read-outs that look alike come from different tables or passages of the source.

What was measured:
p70S6K = p70S6K (Homo sapiens, UniProt P23443); assay: Luciferase-coupled chemiluminescence kinase assay (ATP consumption); assay type: biochemical
Procedure, shortened: (§1)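 Activity is read as ATP depletion: luciferase-luciferin reagent added after a 3 h ambient-temperature kinase reaction, with total ATP use limited to 25-60%. Before ATP addition, 2.5-5 nM kinase and compound were preincubated 30 min in Tris pH 7.5/MgCl2/TX-100/DTT buffer; […].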

AktK = AktK (Homo sapiens, UniProt P31749); assay: as above; assay type: biochemical; settings: read-out: AKT-1 IC50
Procedure, shortened: as §1

Chain of p70S6K (P23443 whole entry): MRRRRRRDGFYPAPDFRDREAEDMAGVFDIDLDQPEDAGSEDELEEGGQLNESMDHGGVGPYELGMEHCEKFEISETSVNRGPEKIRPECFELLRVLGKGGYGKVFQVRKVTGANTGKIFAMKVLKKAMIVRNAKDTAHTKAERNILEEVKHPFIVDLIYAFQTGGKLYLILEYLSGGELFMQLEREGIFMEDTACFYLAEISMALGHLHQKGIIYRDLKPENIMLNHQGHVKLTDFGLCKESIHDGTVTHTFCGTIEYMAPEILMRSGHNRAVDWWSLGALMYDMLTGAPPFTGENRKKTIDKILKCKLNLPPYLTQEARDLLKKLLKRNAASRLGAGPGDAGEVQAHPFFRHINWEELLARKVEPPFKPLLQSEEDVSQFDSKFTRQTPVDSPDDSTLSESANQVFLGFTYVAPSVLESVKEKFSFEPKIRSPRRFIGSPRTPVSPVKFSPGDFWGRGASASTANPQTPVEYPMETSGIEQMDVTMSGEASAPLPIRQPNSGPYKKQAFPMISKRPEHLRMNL
Chain of AktK (P31749 whole entry): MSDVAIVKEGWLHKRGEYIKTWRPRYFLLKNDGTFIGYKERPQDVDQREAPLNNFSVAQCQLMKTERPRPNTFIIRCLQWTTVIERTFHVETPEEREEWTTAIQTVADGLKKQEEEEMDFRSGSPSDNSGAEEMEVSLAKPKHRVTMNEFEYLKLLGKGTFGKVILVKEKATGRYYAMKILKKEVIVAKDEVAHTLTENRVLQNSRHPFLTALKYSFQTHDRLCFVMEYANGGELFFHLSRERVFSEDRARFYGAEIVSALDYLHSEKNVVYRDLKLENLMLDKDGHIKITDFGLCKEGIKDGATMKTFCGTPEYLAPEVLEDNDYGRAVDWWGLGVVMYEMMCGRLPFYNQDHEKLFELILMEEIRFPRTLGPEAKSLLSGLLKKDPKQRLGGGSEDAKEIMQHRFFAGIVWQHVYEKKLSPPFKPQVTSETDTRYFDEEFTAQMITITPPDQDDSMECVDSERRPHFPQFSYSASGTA

Molecule | IC50 (p70S6K; Table 1, class symbols per key) [nM] | IC50 (AktK; Table 1, class symbols per key) [nM] | IC50 (p70S6K) [nM] | IC50 (AktK) [nM]
Cc1c(NCCN2CCCC2)cc(-c2ccccc2)cc1N1CCN(c2ncnc3[nH]nc(Br)c23)CC1 [Entry 231, 5-[4-(3-bromo-1H-pyrazolo[3,4-d]pyrimidin-4-yl)piperazin-1-yl]-4-methyl-N-(2-pyrrolidin-1-ylethyl)biphenyl-3-amine] | < 100 | < 100 |  | 
Cc1noc(-c2cc(NCCN3CCCC3)c(C)c(N3CCN(c4ncnc5[nH]nc(Br)c45)CC3)c2)n1 [Entry 242, 3-[4-(3-bromo-1H-pyrazolo[3,4-d]pyrimidin-4-yl)piperazin-1-yl]-2-methyl-5-(3-methyl-1,2,4-oxadiazol-5-yl)-N-(2-pyrrolidin-1-ylethyl)aniline] | < 100 | < 100 |  | 
CCCC(=O)c1cc(NCCN2CCCC2)c(C)c(N2CCN(c3ncnc4[nH]nc(Br)c34)CC2)c1 [Entry 248, 1-{3-[4-(3-bromo-1H-pyrazolo[3,4-d]pyrimidin-4-yl)piperazin-1-yl]-4-methyl-5-[(2-pyrrolidin-1-ylethyl)amino]phenyl}butan-1-one] | < 100 | < 100 |  | 
Cc1ccc(Cl)cc1N1CCN(c2ncnc3[nH]nc(C(C)C)c23)CC1 [Entry 351, 4-[4-(5-chloro-2-methylphenyl)piperazin-1-yl]-3-(1-methylethyl)-1H-pyrazolo[3,4-d]pyrimidine] |  |  | < 100 | 1000 to 10000
2-[4-(3-bromo-1H-pyrazolo[3,4-d]pyrimidin-4-yl)piperazin-1-yl]-N,N-diethylpyrimidin-4-amine [Entry 140] | 100 to 1000 | 1000 to 10000 |  | 
Cc1c(NCCN(C)C)cc(OCC(C)C)cc1N1CCN(c2ncnc3[nH]nc(Br)c23)CC1 [Entry 195, N′-{3-[4-(3-bromo-1H-pyrazolo[3,4-d]pyrimidin-4-yl)piperazin-1-yl]-2-methyl-5-[(2-methylpropyl)ox-y]phenyl}-N,N-dimethylethane-1,2-diamine] | < 100 | < 100 |  | 
Fc1cc(NCCN2CCCC2)c(Cl)c(N2CCN(c3ncnc4[nH]nc(Br)c34)CC2)c1 [Entry 129, 3-[4-(3-bromo-1H-pyrazolo[3,4-d]pyrimidin-4-yl)piperazin-1-yl]-2-chloro-5-fluoro-N-(2-pyrrolidin-1-ylethyl)aniline] | < 100 | 100 to 1000 |  | 
CCc1n[nH]c2ncnc(N3CCN(c4cc(C(=O)Nc5ccccc5)cc(Br)c4C)CC3)c12 [Entry 192, 3-bromo-5-[4-(3-ethyl-1H-pyrazolo[3,4-d]pyrimidin-4-yl)piperazin-1-yl]-4-methyl-N-phenylbenzamide] | < 100 | 100 to 1000 |  | 
CCc1n[nH]c2ncnc(N3CCN(c4cc(Cl)cc(OCCN5CCCCC5)c4C)CC3)c12 [Entry 17, 4-(4-{5-chloro-2-methyl-3-[(2-piperidin-1-ylethyl)oxy]phenyl}piperazin-1-yl)-3-ethyl-1H-pyrazolo[3,4-d]pyrimidine] | < 100 | 1000 to 10000 |  | 
Cc1c(NCCN(C)C(C)C)cc(Cl)cc1N1CCN(c2ncnc3[nH]nc(Br)c23)CC1 [Entry 193, N′-{3-[4-(3-bromo-1H-pyrazolo[3,4-d]pyrimidin-4-yl)piperazin-1-yl]-5-chloro-2-methylphenyl}-N-methyl-N-(1-methylethyl)ethane-1,2-diamine] | < 100 | < 100 |  | 
C#Cc1cc(NCCN2CCCC2)c(C)c(N2CCN(c3ncnc4[nH]nc(Br)c34)CC2)c1 [Entry 237, 3-[4-(3-bromo-1H-pyrazolo[3,4-d]pyrimidin-4-yl)piperazin-1-yl]-5-ethynyl-2-methyl-N-(2-pyrrolidin-1-ylethyl)aniline] | < 100 | < 100 |  | 
COC(CCC(F)(F)F)(OC)c1cc(NCCN2CCCC2)c(C)c(N2CCN(c3ncnc4[nH]nc(Br)c34)CC2)c1 [Entry 292, 3-[4-(3-bromo-1H-pyrazolo[3,4-d]pyrimidin-4-yl)piperazin-1-yl]-2-methyl-N-(2-pyrrolidin-1-ylethyl)-5-[4,4,4-trifluoro-1,1-bis(methyloxy)butyl]aniline] |  |  | < 100 | < 100
CCOc1cc(NCCN2CCCC2)c(C)c(N2CCN(c3ncnc4[nH]nc(Br)c34)CC2)c1 [Entry 212, 3-[4-(3-bromo-1H-pyrazolo[3,4-d]pyrimidin-4-yl)piperazin-1-yl]-5-(ethyloxy)-2-methyl-N-(2-pyrrolidin-1-ylethyl)aniline] | < 100 | < 100 |  | 
FC(F)(F)c1cc(N2CCN(c3ncnc4[nH]nc(Br)c34)CC2)c2ccccc2n1 [Entry 109, 4-[4-(3-bromo-1H-pyrazolo[3,4-d]pyrimidin-4-yl)piperazin-1-yl]-2-(trifluoromethyl)quinoline] | < 100 | ≥ 10000 |  | 
Cc1nc(-c2cc(NCCN3CCCC3)c(C)c(N3CCN(c4ncnc5[nH]nc(Br)c45)CC3)c2)no1 [Entry 259, 3-[4-(3-bromo-1H-pyrazolo[3,4-d]pyrimidin-4-yl)piperazin-1-yl]-2-methyl-5-(5-methyl-1,2,4-oxadiazol-3-yl)-N-(2-pyrrolidin-1-ylethyl)aniline] | < 100 | < 100 |  | 
Cc1c(NCCN2CCCC2)cc(OCC2CCCCC2)cc1N1CCN(c2ncnc3[nH]nc(Br)c23)CC1 [Entry 217, 3-[4-(3-bromo-1H-pyrazolo[3,4-d]pyrimidin-4-yl)piperazin-1-yl]-5-[(cyclohexylmethyl)oxy]-2-methyl-N-(2-pyrrolidin-1-ylethyl)aniline] | < 100 | 100 to 1000 |  | 

The next lines start with the values.

IC50 (p70S6K; Table 1, class symbols per key) [nM] | IC50 (AktK; Table 1, class symbols per key) [nM] | IC50 (p70S6K) [nM] | IC50 (AktK) [nM] | Molecule
< 100 | 100 to 1000 |  |  | Cc1c(OCCC2CCN(C)CC2)cc(Cl)cc1N1CCN(c2ncnc3[nH]nc(C(F)(F)F)c23)CC1 [Entry 91, 4-[4-(5-chloro-2-methyl-3-{[2-(1-methylpiperidin-4-yl)ethyl]oxy}phenyl)piperazin-1-yl]-3-(tri-fluoromethyl)-1H-pyrazolo[3,4-d]pyrimidine]
 |  | < 100 | 1000 to 10000 | CCc1n[nH]c2ncnc(N3CCN(c4cccc(Cl)c4)CC3)c12 [Entry 333, 4-[4-(3-chlorophenyl)piperazin-1-yl]-3-ethyl-1H-pyrazolo[3,4-d]pyrimidine]
 |  | < 100 | 1000 to 10000 | Cc1ccc(Cl)cc1N1CCN(c2ncnc3[nH]nc(CCC(=O)O)c23)CC1 [Entry 370, 3-{4-[4-(5-chloro-2-methylphenyl)piperazin-1-yl]-1H-pyrazolo[3,4-d]pyrimidin-3-yl}propanoic acid]
1000 to 10000 | ≥ 10000 |  |  | CCc1n[nH]c2ncnc(N3CCN(c4nc(C)cc(C)n4)CC3)c12 [Entry 111, 4-[4-(4,6-dimethylpyrimidin-2-yl)piperazin-1-yl]-3-ethyl-1H-pyrazolo[3,4-d]pyrimidine]
< 100 | 1000 to 10000 |  |  | Cc1ccc(C(=O)NCC(C)C)cc1N1CCN(c2ncnc3[nH]nc(Cl)c23)CC1 [Entry 197, 3-[4-(3-chloro-1H-pyrazolo[3,4-d]pyrimidin-4-yl)piperazin-1-yl]-4-methyl-N-(2-methylpropyl)benzamide]
100 to 1000 | ≥ 10000 |  |  | CCc1n[nH]c2ncnc(N3CCN(c4cccc(OC)c4)CC3)c12 [Entry 99, 3-ethyl-4-{4-[3-(methyloxy)phenyl]piperazin-1-yl}-1H-pyrazolo[3,4-d]pyrimidine]
100 to 1000 | ≥ 10000 |  |  | Brc1n[nH]c2ncnc(N3CCN(c4ncccn4)CC3)c12 [Entry 108, 3-bromo-4-(4-pyrimidin-2-ylpiperazin-1-yl)-1H-pyrazolo[3,4-d]pyrimidine]
< 100 | 100 to 1000 |  |  | CNC(=O)c1ccc(C)c(N2CCN(c3ncnc4[nH]nc(Br)c34)CC2)c1 [Entry 188, 3-[4-(3-bromo-1H-pyrazolo[3,4-d]pyrimidin-4-yl)piperazin-1-yl]-N,4-dimethylbenzamide]
1000 to 10000 | 1000 to 10000 |  |  | CCN(CC)CCOc1cc(Cl)cc(N2CCN(c3ncnc4c3c(C(F)(F)F)nn4C(C)(C)C)CC2)c1C [Entry 33, 2-[(5-chloro-3-{4-[1-(1,1-dimethylethyl)-3-(tri-fluoromethyl)-1H-pyrazolo[3,4-d]pyrimidin-4-yl]piperazin-1-yl}-2-methylphenyl)oxy]-N,N-diethylethanamine]
 |  | 100 to 1000 | ≥ 10000 | COc1ccccc1N1CCN(c2ncnc3[nH]cnc23)CC1 [Entry 307, 6-{4-[2-(methyloxy)phenyl]piperazin-1-yl}-9H-purine]
< 100 | < 100 |  |  | Cc1c(NCCN(C)C)cc(OCC(C)(C)F)cc1N1CCN(c2ncnc3[nH]nc(Br)c23)CC1 [Entry 226, N′-{3-[4-(3-bromo-1H-pyrazolo[3,4-d]pyrimidin-4-yl)piperazin-1-yl]-5-[(2-fluoro-2-methylpropyl)oxy]-2-methylphenyl}-N,N-dimethyl-ethane-1,2-diamine]
 |  | 100 to 1000 | ≥ 10000 | Cc1ccccc1N1CCN(c2ncnc3[nH]ccc23)CC1 [Entry 301, 4-[4-(2-methylphenyl)piperazin-1-yl]-7H-pyrrolo[2,3-d]pyrimidine]
< 100 | < 100 |  |  | Cc1ccc(C(=O)Nc2ccccc2)cc1N1CCN(c2ncnc3[nH]nc(Br)c23)CC1 [Entry 187, 3-[4-(3-bromo-1H-pyrazolo[3,4-d]pyrimidin-4-yl)piperazin-1-yl]-4-methyl-N-phenylbenzamide]
 |  | 100 to 1000 | ≥ 10000 | CCc1n[nH]c2ncnc(N3CCN(c4cccc(Cl)c4)C(C(=O)O)C3)c12 (stereo not shown) [Entry 352, 1-(3-chlorophenyl)-4-(3-ethyl-1H-pyrazolo[3,4-d]pyrimidin-4-yl)piperazine-2-carboxylic acid]
100 to 1000 | ≥ 10000 |  |  | Clc1cc(Cl)cc(N2CCN(c3ncnc4[nH]nc(Br)c34)CC2)c1 [Entry 128, 3-bromo-4-[4-(3,5-dichlorophenyl)piperazin-1-yl]-1H-pyrazolo[3,4-d]pyrimidine]
 |  | < 100 | 100 to 1000 | Cc1ccc(Cl)cc1N1CCN(c2ncnc3[nH]nc(Br)c23)CC1 [Entry 329, 3-bromo-4-[4-(5-chloro-2-methylphenyl)piperazin-1-yl]-1H-pyrazolo[3,4-d]pyrimidine]
